Experimental data reported in the supplement of paper PMC11208160.

test: recombinant UMI read abundance after kanamycin selection (control-corrected) (log10(CPM+1)); higher = more efficient recombination; extreme values may be limits of the assay; sequences stand for … in AGTGCAGAGAAAATCGGCCAGTTTTCTCTGCCTGCAGTCCGCATGCCGTGGGACCCCTTGGGTTCTAACCTGTTGCCTAGATTTATGCAGCGGACTGCCTTTCTCCCAAAGTGATAAACCGG…AGGTTGGTTTCACT; site = the 11-nt donor
Outline: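 After plating on IPTG (0.07 mM) plus kanamycin, or unselected, in two replicates, recombinant UMIs were PCR-amplified across the donor–target junction and sequenced. The cells were Escherichia coli co-electroporated with a UMI-tagged donor and donor-binding-loop pair library and a target plasmid with a fixed target and T7-inducible IS621 bridge recombinase. Values are log10(CPM+1), with CPM averaged over replicates and scaled by control-derived factors.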

Row | Sequence | recombinant UMI read abundance (log10)
1 | TACTTGCCATGGACCGGTTTTCCCGGTAATCCGTATTTGCT (site TACTTGTCTAG) | 0.383
2 | TACTTGGCATGGACCGGTTTTCCCGGTAATCCGTATTTGTG (site TAATTGGCTCA) | 0.0141
3 | TACTTGGCATGGACCGGTTTTCCCGGTAATCCGTATTTGTG (site TACTTGGCTCA) | 0.305
4 | TACTTGGCATGGACCGGTTTTCCCGGTAATCCGTATTTGTG (site TAGTTGGCTCA) | 0.017
5 | TACTTGGCATGGACCGGTTTTCCCGGTAATCCGTATTTGTG (site TATTTGGCTCA) | 0.00802
6 | TACTTGTCATGGACCGGTTTTCCCGGTAATCCGTATTTGCT (site TACTTGACTAG) | 0
7 | TACTTGTCATGGACCGGTTTTCCCGGTAATCCGTATTTGCT (site TACTTGCCTAG) | 0.649
8 | TACTTGTCATGGACCGGTTTTCCCGGTAATCCGTATTTGCT (site TACTTGGCTAG) | 0.00306
9 | TACTTGTCATGGACCGGTTTTCCCGGTAATCCGTATTTGCT (site TACTTGTCTAG) | 1.51
10 | TACTTTCCATGGACCGGTTTTCCCGGTAATCCGTATTTGCC (site TACTTTCCTGG) | 0
11 | TAGAAAACATGGACCGGTTTTCCCGGTAATCCGTATTTGCA (site TAGAAAACTTG) | 1.54
12 | TAGAAAACATGGACCGGTTTTCCCGGTAATCCGTATTTGCA (site TAGAACACTTG) | 1.57
13 | TAGAAAACATGGACCGGTTTTCCCGGTAATCCGTATTTGCA (site TAGAAGACTTG) | 0.00894
14 | TAGAAAACATGGACCGGTTTTCCCGGTAATCCGTATTTGCA (site TAGAATACTTG) | 0
15 | TAGAAGACATGGACCGGTTTTCCCGGTAATCCGTATTTGCA (site TAGAAAACTTG) | 0
16 | TAGAAGACATGGACCGGTTTTCCCGGTAATCCGTATTTGCA (site TAGAACACTTG) | 0.985
17 | TAGAAGACATGGACCGGTTTTCCCGGTAATCCGTATTTGCA (site TAGAAGACTTG) | 2.51
18 | TAGAAGACATGGACCGGTTTTCCCGGTAATCCGTATTTGCA (site TAGAATACTTG) | 0
19 | TAGAATACATGGACCGGTTTTCCCGGTAATCCGTATTTGCG (site TAGAATACTAG) | 0
20 | TAGAATACATGGACCGGTTTTCCCGGTAATCCGTATTTGCG (site TAGAATACTCG) | 2.06
21 | TAGAATACATGGACCGGTTTTCCCGGTAATCCGTATTTGCG (site TAGAATACTGG) | 0
22 | TAGAATACATGGACCGGTTTTCCCGGTAATCCGTATTTGCG (site TAGAATACTTG) | 0.239
23 | TAGAATTCATGGACCGGTTTTCCCGGTAATCCGTATTTGTA (site TAGAATTCTTA) | 1.67
24 | TAGACTACATGGACCGGTTTTCCCGGTAATCCGTATTTGCA (site TAGAATACTTG) | 0.379
25 | TAGACTACATGGACCGGTTTTCCCGGTAATCCGTATTTGCA (site TAGACTACTTG) | 1.62

Row | Sequence | recombinant UMI read abundance (log10)
26 | TAGACTACATGGACCGGTTTTCCCGGTAATCCGTATTTGCA (site TAGAGTACTTG) | 0.0124
27 | TAGACTACATGGACCGGTTTTCCCGGTAATCCGTATTTGCA (site TAGATTACTTG) | 0.502
28 | TAGATTACATGGACCGGTTTTCCCGGTAATCCGTATTTGTA (site TAGATTACTTA) | 0.528
29 | TAGCAAGCATGGACCGGTTTTCCCGGTAATCCGTATTTGAA (site TAGCAAGCTTT) | 1.45
30 | TAGCAAGCATGGACCGGTTTTCCCGGTAATCCGTATTTGAA (site TAGCCAGCTTT) | 0.0116
31 | TAGCAAGCATGGACCGGTTTTCCCGGTAATCCGTATTTGAA (site TAGCGAGCTTT) | 0.00665
32 | TAGCAAGCATGGACCGGTTTTCCCGGTAATCCGTATTTGAA (site TAGCTAGCTTT) | 0.00716
33 | TAGCATACATGGACCGGTTTTCCCGGTAATCCGTATTTGCA (site TAGAATACTTG) | 0
34 | TAGCATACATGGACCGGTTTTCCCGGTAATCCGTATTTGCA (site TAGCATACTTG) | 1.62
35 | TAGCATACATGGACCGGTTTTCCCGGTAATCCGTATTTGCA (site TAGGATACTTG) | 0
36 | TAGCATACATGGACCGGTTTTCCCGGTAATCCGTATTTGCA (site TAGTATACTTG) | 0.507
37 | TAGCATTCATGGACCGGTTTTCCCGGTAATCCGTATTTGGT (site TAGCATTCTAC) | 1.23
38 | TAGCATTCATGGACCGGTTTTCCCGGTAATCCGTATTTGGT (site TAGCCTTCTAC) | 0.00694
39 | TAGCATTCATGGACCGGTTTTCCCGGTAATCCGTATTTGGT (site TAGCGTTCTAC) | 0.0097
40 | TAGCATTCATGGACCGGTTTTCCCGGTAATCCGTATTTGGT (site TAGCTTTCTAC) | 0
41 | TAGCCATCATGGACCGGTTTTCCCGGTAATCCGTATTTGGT (site TAGCCATCTAC) | 0.74
42 | TAGCCATCATGGACCGGTTTTCCCGGTAATCCGTATTTGGT (site TAGCCCTCTAC) | 0.0197
43 | TAGCCATCATGGACCGGTTTTCCCGGTAATCCGTATTTGGT (site TAGCCGTCTAC) | 0.0186
44 | TAGCCATCATGGACCGGTTTTCCCGGTAATCCGTATTTGGT (site TAGCCTTCTAC) | 0.0124
45 | TAGCCCTCATGGACCGGTTTTCCCGGTAATCCGTATTTGGT (site TAGCCATCTAC) | 0.00538
46 | TAGCCCTCATGGACCGGTTTTCCCGGTAATCCGTATTTGGT (site TAGCCCTCTAC) | 1.12
47 | TAGCCCTCATGGACCGGTTTTCCCGGTAATCCGTATTTGGT (site TAGCCGTCTAC) | 0.0119
48 | TAGCCCTCATGGACCGGTTTTCCCGGTAATCCGTATTTGGT (site TAGCCTTCTAC) | 0
49 | TAGCCGACATGGACCGGTTTTCCCGGTAATCCGTATTTGAC (site TAGCCGACTGT) | 2.63
50 | TAGCCGGCATGGACCGGTTTTCCCGGTAATCCGTATTTGGC (site TAGCCGGCTGC) | 1.62

Row | Sequence | recombinant UMI read abundance (log10)
51 | TAGCCGGCATGGACCGGTTTTCCCGGTAATCCGTATTTGGC (site TCGCCGGCTGC) | 0
52 | TAGCCGGCATGGACCGGTTTTCCCGGTAATCCGTATTTGGC (site TGGCCGGCTGC) | 0
53 | TAGCCGGCATGGACCGGTTTTCCCGGTAATCCGTATTTGGC (site TTGCCGGCTGC) | 0
54 | TAGCCTCCATGGACCGGTTTTCCCGGTAATCCGTATTTGTT (site TAGCCTCCTAA) | 0.0845
55 | TAGCCTGCATGGACCGGTTTTCCCGGTAATCCGTATTTGAT (site TAGCCTGCTAT) | 0.0647
56 | TAGCGCGCATGGACCGGTTTTCCCGGTAATCCGTATTTGTC (site TAGCGCGCTGA) | 2.77
57 | TAGCTAGCATGGACCGGTTTTCCCGGTAATCCGTATTTGAC (site TAGCTAGCTAT) | 0.556
58 | TAGCTAGCATGGACCGGTTTTCCCGGTAATCCGTATTTGAC (site TAGCTAGCTCT) | 0
59 | TAGCTAGCATGGACCGGTTTTCCCGGTAATCCGTATTTGAC (site TAGCTAGCTGT) | 2.34
60 | TAGCTAGCATGGACCGGTTTTCCCGGTAATCCGTATTTGAC (site TAGCTAGCTTT) | 0.388
61 | TAGCTAGCATGGACCGGTTTTCCCGGTAATCCGTATTTGAG (site TAGCTAGCTAT) | 0.457
62 | TAGCTAGCATGGACCGGTTTTCCCGGTAATCCGTATTTGAG (site TAGCTAGCTCT) | 0.921
63 | TAGCTAGCATGGACCGGTTTTCCCGGTAATCCGTATTTGAG (site TAGCTAGCTGT) | 0
64 | TAGCTAGCATGGACCGGTTTTCCCGGTAATCCGTATTTGAG (site TAGCTAGCTTT) | 0.014
65 | TAGCTAGCATGGACCGGTTTTCCCGGTAATCCGTATTTGGA (site TAGCTAGCTTA) | 0.347
66 | TAGCTAGCATGGACCGGTTTTCCCGGTAATCCGTATTTGGA (site TAGCTAGCTTC) | 0.303
67 | TAGCTAGCATGGACCGGTTTTCCCGGTAATCCGTATTTGGA (site TAGCTAGCTTG) | 0.447
68 | TAGCTAGCATGGACCGGTTTTCCCGGTAATCCGTATTTGGA (site TAGCTAGCTTT) | 0.866
69 | TAGCTCACATGGACCGGTTTTCCCGGTAATCCGTATTTGGC (site TAGCTCACTGC) | 1.5
70 | TAGCTCGCATGGACCGGTTTTCCCGGTAATCCGTATTTGAA (site TAGCTAGCTTT) | 0.0173
71 | TAGCTCGCATGGACCGGTTTTCCCGGTAATCCGTATTTGAA (site TAGCTCGCTTT) | 1.27
72 | TAGCTCGCATGGACCGGTTTTCCCGGTAATCCGTATTTGAA (site TAGCTGGCTTT) | 0.0219
73 | TAGCTCGCATGGACCGGTTTTCCCGGTAATCCGTATTTGAA (site TAGCTTGCTTT) | 0.0127
74 | TAGGAACCATGGACCGGTTTTCCCGGTAATCCGTATTTGCG (site TAGGAAACTCG) | 0.374
75 | TAGGAACCATGGACCGGTTTTCCCGGTAATCCGTATTTGCG (site TAGGAACCTCG) | 0.478
